Columns and labels:
[1] = Octanol/water partition coefficient by HPLC
Protocol: (§1) The solubility and partition coefficient data for 2 and taxol were determined using an HPLC method.
(§2) Solubility was found by forming a solution in water with the aid of sonication for five minutes, centrifugation of the samples, and injection of the supernatant. The values reported were normalized using calibration curves constructed for both compounds by preparing known concentrations in the range 1×10^-6 to 1×10^-3 M in methylene chloride and subjecting to HPLC analysis under the same conditions. […] Partition coefficients were determined by dissolving the compound in the organic phase, shaking the resulting solution with water for ten minutes, and analyzing each phase by HPLC as above.

[2] = test system: tubulin; experiment: Microtubule polymerization-depolymerization measurements (turbidity at 340 nm); format: biochemical; settings: for suppression of calcium chloride promoted depolymerization: 10^-6 M drug, 1.0 mg/mL tubulin, 0.25 mM CaCl2, 37° C.
Protocol: Tubulin polymerization-depolymerization measurements are illustrate in FIG. 3. Negative controls are shown with triangles; positive taxol controls are shown with diamonds; and taxol-2'-MPT, i.e., compound 2 is shown with dots.
More particularly, measurement were performed in 96 well plates at 37° C. following the protocol of R. Merlock and W. Wrasidlo (Analytical Biochemistry 1993, in press). Calcium chloride addition is indicated by the arrow. In each case, 1.0 mM GTP was used to promote the initial polymerization of tubulin. Negative control employed tubulin (1.0 mg/mL) alone, CaCl2 (0,25 mM) added after 20 minutes. Positive taxol control employed tubulin (1.0 mg/mL) with taxol (10^-6 M) and CaCl2 (0.25 mM) added after 20 minutes. The experimental taxol-2'-MPTemployed tubulin (1.0 mg/mL) with taxol-2'-MPT (10^-6) and CaCl2 (0.25 mM) added after 20 minutes. Turbidity was measured as optical density at 340 nm using a microplate reader (Molecular Devices Thermomax).

[3] = background statement; cited from earlier work
[4] = test system: albumin; settings: sera; cited from earlier work
[5] = test system: tubulin; settings: background; cited from earlier work
[6] = test system: human leukemia; experiment: Cytotoxicity (XTT, 72 hours), human leukemia
Protocol: (§6) More particularly, cells were plated on 96 well plates with the following controls: no cells and toxic control (1×10^-3 M SDS). The drug was added to the first set of wells and diluted via standard dilution method from the stock. Plates were incubated at 37° C., 5% CO2 in sterile air in an humidified incubator for 72 hours. An aliquot of 50 L of a solution of 2,3-bis(methoxy-4-nitro-5-sulfophenyl)-5-[(phenylamino)carbonyl]-1H-tetrazolium hydroxide (XTT), 1 mg mL^-1, in phosphate buffered saline (PBS, 100 mM) was added to the wells. In the presence of viable cells, this colorless clear media is enzymatically altered to give a pink coloration. […] Percentage cytotoxicity was calculated using the formula: %C=1--(OD toxin)(OD growth control)^-1 (100).

[7] = test system: cervical carcinoma; experiment: Cytotoxicity (XTT, 72 hours), cervical carcinoma
Protocol: as §6

[8] = test system: metastatic melanoma; experiment: Cytotoxicity (XTT, 72 hours), metastatic melanoma
Protocol: as §6

[9] = Solubility in water by HPLC (sonication, centrifugation, injection of supernatant); format: physicochemical
Protocol: as §1, §2

[10] = Stability of taxol-2'-MPT by HPLC (solid state, aqueous media); format: physicochemical
Protocol: (§3) Due to a difference in retention time using our standard HPLC conditions (see FIG. 1) and differing ultraviolet absorption maxima (1280 /1254 =1.6 for 2 and 0.3 for 1), the stability of 2 was easily assayed by HPLC (FIG. 1). […] In phosphate buffered saline (PBS) or ammonium acetate--phosphate buffer systems of pH 6.0 to 7.3, 2 is stable at 25° C. for over 21 days. Taxol-2'-MPT (2) is, however, unstable in 5% HCl (pH 1.1) and brine.

[11] = Stability/kinetics of taxol release from taxol-2'-MPT in plasma; format: in vitro ADME, human
Protocol: as §3
(§4) Under these conditions 20% of total is recovered. More particularly, Taxol-2'-MPT (2) was dissolved in the aqueous system with the aid of sonication for five minutes. Aliquots were then removed at the times shown and partitioned into methylene chloride to quench the reaction. Samples were then analyzed using a Waters Maxima HPLC instrument equipped with an autoinjector (3.9×300 mm C18 column equipped with a precolumn. The flow rate was 1.5 mL/minute. The eluent gradient A-B extended over 30 minutes. "A" was 80% 80 mM ammonium acetate, pH 6.0. "B" was 100% methanol. An ultraviolet diode array detector was employed. The ratio of compound 2 (Rf 16.2 min.) to taxol (compound 1, Rf 16.8 min.) remaining was determined from the relative areas of the peaks after normalization with previously determined calibration curves.

[12] = Kinetics of taxol release from taxol-2'-MPT in aqueous solutions at 25° C.; format: physicochemical; settings: sterile water, pH 6.2 PBS or 5% dextrose, over 11 minutes
Protocol: as §4

[13] = Self-assembly: optical clarity, OD at 340 nm, TEM; format: physicochemical; settings: for morphology of self-assembled structures in buffered solutions: 1 mM in 100 mM PBS
Source text: Transmission electron microscopy (TEM) confirmed the presence of supramolecular structures in these solutions. […] It is likely that the long term stability of these solutions is due, at least in part, to stabilization provided by this structured environment.

[14] = test system: serum protein; experiment: Displacement of MPT group by serum protein
Source text: (§5) However, the release of taxol from taxol-2'-MPT can also be catalyzed by serum protein and by proteins having nucleophilic groups. […] Dialysis of the protein:taxol intermediate indicates a dissociation period of hours or days. Displacement of the MPT group by serum proteins seems to be specific for such serum proteins. […] The precise nature of the bonding between the protein and taxol has not been characterized. Scheme 2 illustrates alternative pathways for MPT release.

[15] = test system: immunoglobulins; experiment: Displacement of MPT group by immunoglobulins
Source text: as §5

[16] = test system: serum albumen; experiment: Displacement of MPT group by serum albumin
Source text: as §5

[17] = test system: non-serum proteins; experiment: Displacement of MPT group by non-serum proteins
Source text: as §5

[18] = test system: A549 non-small cell lung adenocarcinoma; experiment: Efficacy in lung tumor xenograft nude mouse model
Protocol: The tumor model was generated from an ATCC A549 non-small cell lung adenocarcinoma cell line that was maintained under the standard cell proliferation conditions (37° C., 5% carbon dioxide in sterile air). Hemocytometer counted cells suspended in Hanks medium (Gibco, Grand Island N.Y.) were implanted S.C.

[19] = water, 5% dextrose, 1.5% saline

CC(=O)O[C@H]1C(=O)[C@@]2(C)[C@H]([C@H](OC(=O)c3ccccc3)[C@]3(O)C[C@H](OC(=O)[C@H](O)[C@@H](NC(=O)c4ccccc4)c4ccccc4)C(C)=C1C3(C)C)[C@]1(OC(C)=O)CO[C@@H]1C[C@@H]2O [taxol, reference compound]
Partition Coefficient [octanol]/[water] [1]: > 10000 | suppression of calcium chloride promoted depolymerization [2]: suppressed by taxol | microtubule stabilization by taxol recovered from human plasma treated with 2 ([2]; taxol recovered from plasma): exhibited the expected microtubule stabilization | water solubility [3]: less than 1.5×10^-6 molar | taxol binding to albumin [4]: ca. 85% | effect of taxol binding on tubulin [5]: prevents its polymerization and the formation of microtubules | cytotoxicity level, human leukemia [6]: Extremely high | cytotoxicity level, cervical carcinoma [7]: Extremely high | cytotoxicity level, metastatic melanoma [8]: Extremely high

CC(=O)O[C@H]1C(=O)[C@@]2(C)[C@H]([C@H](OC(=O)c3ccccc3)[C@]3(O)C[C@H](OC(=O)[C@H](Oc4cccc[n+]4C)[C@@H](NC(=O)c4ccccc4)c4ccccc4)C(C)=C1C3(C)C)[C@]1(OC(C)=O)CO[C@@H]1C[C@@H]2O [taxol-2'-MPT]
degradation during solubility and partition studies [9]: No degradation | solubility compared with clinically relevant dosages (3 to 30 mM) ([9]; range of aqueous systems): higher than the clinically relevant dosages | water solubility compared with parent taxol ([9]; relative to taxol): significantly more soluble in water than the parent taxol | solubility ([9]; water, HPLC, table value): 1700 µM | logP [1]: 1.7 | stability in 5% HCl and brine ([10]; 5% HCl (pH 1.1) and brine): unstable | degradation products detected ([10]; HPLC): taxol and the pyridinone that results from hydrolysis of pyridinium salts | stability period in buffer ([10]; PBS or ammonium acetate-phosphate buffer, pH 6.0 to 7.3, 25° C.): over 21 days | stability in aqueous media (discussion) ([10]; aqueous media, physiological pH and ion strength): essentially completely stable | stability in most aqueous media (discussion) ([10]; most aqueous media): remarkably stable | onset of slow degradation [10, 19]: > 4 days | stability in water, 5% dextrose, and 1.5% saline [10, 19]: stable for several days | degradation in human plasma ([11]; human plasma, 37° C.): breaks down rapidly | recovery ([11]; human, plasma, methylene chloride extraction, read-out: total recovered from plasma): 20% | total recovered from plasma ([11]; plasma, methylene chloride extraction): 20% | time to complete conversion of 2 into taxol in plasma ([11]; plasma, methylene chloride extraction, 25° C. per FIG. 1): ≤ 10 min | discharge of taxol in sera ([11]; sera): rapidly discharges taxol in sera | taxol release in aqueous media [12]: no taxol release is observed | morphology of self-assembled structures in buffered solutions ([13]; TEM): self-assembled helical fibrous nanostructures | morphology of self-assembled structures in buffered solutions ([13]; TEM, listed as 2): Uniform aggregates of fibrillar structure | morphology of self-assembled structures in unbuffered solutions ([13]; 1 mM in H2O, TEM): self-assembled spherical nanostructures | diameter of fibrillar aggregates ([13]; TEM): ca. 80 Å | helical twist of aggregates ([13]; TEM): about 7 | length of fibrillar aggregates ([13]; TEM): up to 800 Å | concentration above which haze is exhibited ([13]; buffered solutions): greater than 1×10^-3 M | critical concentration (exponential increase in OD at 340 nm) ([13]; buffered solutions, 340 nm): 400 µM | diameter of spherical structures ([13]; freshly sonicated solutions, TEM): about 50 Å | optical appearance of water solutions ([13]; water, all concentrations examined): optically clear | suppression of calcium chloride promoted depolymerization [2]: not by taxol-2'-MPT | microtubule polymerization-depolymerization ([2]; GTP-saline controls and taxol as comparators): very similar to GTP-saline controls and drastically different from taxol | effect on tubulin-microtubule equilibria ([2]; buffered aqueous assay): does not affect the tubulin-microtubule equilibria | binding to tubulin ([2]; inferred from the polymerization assay): does not appear to bind to tubulin in the manner of taxol | displacement of MPT group on contact with serum protein [14]: observed to displace its MPT group and form a protein:taxol intermediate | effectiveness in displacing MPT group, immunoglobulins [15]: particularly effective | effectiveness in displacing MPT group, serum albumin [16]: particularly effective | MPT-displacing activity of non-serum proteins [17]: seemed to lack this activity | cytotoxicity level, human leukemia [6]: Extremely high | cytotoxicity level, cervical carcinoma [7]: Extremely high | cytotoxicity level, metastatic melanoma [8]: Extremely high | control of tumor growth ([18]; I.P. day 1, 3, 7, taxol 18.0 mg/kg, taxol-2'-MPT 23.9 mg/kg, preliminary data): at least comparable to that of taxol | conversion to taxol in vivo ([18]; inferred from the xenograft results): converted rapidly to taxol in vivo

Reference: patent US6252094A (The Scripps Research Institute, priority 1999, dated 2001)
